Results from patent US8952024B2, “Herbicidal pyrimidone derivatives” (E I du Pont de Nemours and Company, priority 2009, dated 2015).

The molecules below were run on blackgrass (Alopecurus myosuroides) (assay: Test B pre-/postemergence plant response). Conditions: 31 g ai/ha, postemergence; scale 0 to 100, 0 is no effect, 100 is complete control.
Type: in vivo
Summary of the method: (§1)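 Compound in solvent + surfactant applied pre-em (loam/sand) or post-em (plants 2–18 cm, peat medium); greenhouse hold 13–15 days; visual 0–100 control score.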
With `CCCCn1c(-c2ccccc2)ncc(C(=O)C2=C(O)CCCC2=O)c1=O` [Compound 86] the “Plant response rating, Blackgrass” value was 15.

Same assay, conditions: 62 g ai/ha, postemergence; 0 is no effect, 100 is complete control; 13 to 15 days
For `CCCCn1c(-c2ccccc2)ncc(C(=O)C2=C(O)CCCC2=O)c1=O` [Compound 86], the “Blackgrass plant response rating (0 to 100 scale)” value was 30.

Same assay, conditions: Postemergence, 125 g ai/ha; visual rating after 13 to 15 days, scale 0 (no effect) to 100 (complete control)
With `CCCCn1c(-c2ccccc2)ncc(C(=O)C2=C(O)CCCC2=O)c1=O` [Compound 86] the “Plant response rating, Blackgrass” value was 45.

Same assay, conditions: Postemergence, 250 g ai/ha; scale 0 to 100 (0 no effect, 100 complete control)
`CCCCn1c(-c2ccccc2)ncc(C(=O)C2=C(O)CCCC2=O)c1=O` [Compound 86] was tested, and the “Plant response rating, Blackgrass” value was 55.

What follows are molecules tested on corn (Zea mays) (assay: Test B pre-/postemergence plant response). Conditions: 31 g ai/ha, postemergence; scale 0 to 100, 0 is no effect, 100 is complete control.
Type: in vivo
Summary of the method: as §1
In the case of `CCCCn1c(-c2ccccc2)ncc(C(=O)C2=C(O)CCCC2=O)c1=O` [Compound 86], the “Plant response rating, Corn” value is reported as 10.

Same assay, conditions: 62 g ai/ha, postemergence; 0 is no effect, 100 is complete control; 13 to 15 days
`CCCCn1c(-c2ccccc2)ncc(C(=O)C2=C(O)CCCC2=O)c1=O` [Compound 86] was tested, and the “Corn plant response rating (0 to 100 scale)” value was 60.

Same assay, conditions: Postemergence, 125 g ai/ha; visual rating after 13 to 15 days, scale 0 (no effect) to 100 (complete control)
In the case of `CCCCn1c(-c2ccccc2)ncc(C(=O)C2=C(O)CCCC2=O)c1=O` [Compound 86], the “Plant response rating, Corn” value is reported as 80.

Same assay, conditions: Postemergence, 250 g ai/ha; scale 0 to 100 (0 no effect, 100 complete control)
For `CCCCn1c(-c2ccccc2)ncc(C(=O)C2=C(O)CCCC2=O)c1=O` [Compound 86], the “Plant response rating, Corn” value was 85.

These molecules were tested on large crabgrass (Digitaria sanguinalis) (assay: Test B pre-/postemergence plant response). Conditions: 31 g ai/ha, postemergence; scale 0 to 100, 0 is no effect, 100 is complete control.
Type: in vivo
Summary of the method: as §1
`CCCCn1c(-c2ccccc2)ncc(C(=O)C2=C(O)CCCC2=O)c1=O` [Compound 86] was tested, and the “Plant response rating, Crabgrass, Large” value was 85.

Same assay, conditions: 62 g ai/ha, postemergence; 0 is no effect, 100 is complete control; 13 to 15 days
`CCCCn1c(-c2ccccc2)ncc(C(=O)C2=C(O)CCCC2=O)c1=O` [Compound 86] was tested, and the “Crabgrass, Large plant response rating (0 to 100 scale)” value was 98.

Same assay, conditions: Postemergence, 125 g ai/ha; visual rating after 13 to 15 days, scale 0 (no effect) to 100 (complete control)
In the case of `CCCCn1c(-c2ccccc2)ncc(C(=O)C2=C(O)CCCC2=O)c1=O` [Compound 86], the “Plant response rating, Crabgrass, Large” value is reported as 98.

Same assay, conditions: Postemergence, 250 g ai/ha; scale 0 to 100 (0 no effect, 100 complete control)
In the case of `CCCCn1c(-c2ccccc2)ncc(C(=O)C2=C(O)CCCC2=O)c1=O` [Compound 86], the “Plant response rating, Crabgrass, Large” value is reported as 98.

These molecules were tested on Surinam grass (Brachiaria decumbens) (assay: Test B pre-/postemergence plant response). Conditions: 31 g ai/ha, postemergence; scale 0 to 100, 0 is no effect, 100 is complete control.
Type: in vivo
Summary of the method: as §1
In the case of `CCCCn1c(-c2ccccc2)ncc(C(=O)C2=C(O)CCCC2=O)c1=O` [Compound 86], the “Plant response rating, Surinam Grass” value is reported as 80.

Same assay, conditions: 62 g ai/ha, postemergence; 0 is no effect, 100 is complete control; 13 to 15 days
`CCCCn1c(-c2ccccc2)ncc(C(=O)C2=C(O)CCCC2=O)c1=O` [Compound 86] was tested, and the “Surinam Grass plant response rating (0 to 100 scale)” value was 95.

Same assay, conditions: Postemergence, 250 g ai/ha; scale 0 to 100 (0 no effect, 100 complete control)
With `CCCCn1c(-c2ccccc2)ncc(C(=O)C2=C(O)CCCC2=O)c1=O` [Compound 86] the “Plant response rating, Surinam Grass” value was 100.

What follows are molecules tested on downy bromegrass (Bromus tectorum) (assay: Test B pre-/postemergence plant response). Conditions: 31 g ai/ha, postemergence; scale 0 to 100, 0 is no effect, 100 is complete control.
Type: in vivo
Summary of the method: as §1
In the case of `CCCCn1c(-c2ccccc2)ncc(C(=O)C2=C(O)CCCC2=O)c1=O` [Compound 86], the “Plant response rating, Bromegrass, Downy” value is reported as 10.

Same assay, conditions: 62 g ai/ha, postemergence; 0 is no effect, 100 is complete control; 13 to 15 days
For `CCCCn1c(-c2ccccc2)ncc(C(=O)C2=C(O)CCCC2=O)c1=O` [Compound 86], the “Bromegrass, Downy plant response rating (0 to 100 scale)” value was 10.

Same assay, conditions: Postemergence, 125 g ai/ha; visual rating after 13 to 15 days, scale 0 (no effect) to 100 (complete control)
`CCCCn1c(-c2ccccc2)ncc(C(=O)C2=C(O)CCCC2=O)c1=O` [Compound 86] was tested, and the “Plant response rating, Bromegrass, Downy” value was 35.

Same assay, conditions: Postemergence, 250 g ai/ha; scale 0 to 100 (0 no effect, 100 complete control)
For `CCCCn1c(-c2ccccc2)ncc(C(=O)C2=C(O)CCCC2=O)c1=O` [Compound 86], the “Plant response rating, Bromegrass, Downy” value was 50.

The molecules below were run on yellow nutsedge (Cyperus esculentus) (assay: Test B pre-/postemergence plant response). Conditions: 31 g ai/ha, postemergence; scale 0 to 100, 0 is no effect, 100 is complete control.
Type: in vivo
Summary of the method: as §1
With `CCCCn1c(-c2ccccc2)ncc(C(=O)C2=C(O)CCCC2=O)c1=O` [Compound 86] the “Plant response rating, Nutsedge, Yellow” value was 65.

Same assay, conditions: 62 g ai/ha, postemergence; 0 is no effect, 100 is complete control; 13 to 15 days
In the case of `CCCCn1c(-c2ccccc2)ncc(C(=O)C2=C(O)CCCC2=O)c1=O` [Compound 86], the “Nutsedge, Yellow plant response rating (0 to 100 scale)” value is reported as 70.

Same assay, conditions: Postemergence, 250 g ai/ha; scale 0 to 100 (0 no effect, 100 complete control)
With `CCCCn1c(-c2ccccc2)ncc(C(=O)C2=C(O)CCCC2=O)c1=O` [Compound 86] the “Plant response rating, Nutsedge, Yellow” value was 85.
